Where “and” joins values, the source holds several entries; their conditions need not be identical. Identical values can stand only once. Like-named read-outs stand apart in the source and are kept apart here.
Experiments:
Botrytis cinerea = type: cell-based; parameters: key to Plate antimicrobial activity test Botrytis cinerea, level: a case where hyphae extended to the entire well and no antimicrobial activity was found is defined as “level 0,”; a case where hyphae extended to less than a half of the well and thus the peptide inhibited the growth of the hyphae is defined as “level 1,”; a case where ungerminated spores were present and the peptide partially inhibited the germination is defined as “level 2,”; a case where all spores were ungerminated and the peptide completely inhibited the germination is defined as “level 3.”; conditions: 25° C. for 1 day or 2 days, microscopic observation
[1] = tested on: Colletotrichum orbiculare; type: cell-based; parameters: key to Plate antimicrobial activity test Colletotrichum orbiculare, level: a case where hyphae extended to the entire well and no antimicrobial activity was found is defined as “level 0,”; a case where hyphae extended to less than a half of the well and thus the peptide inhibited the growth of the hyphae is defined as “level 1,”; a case where ungerminated spores were present and the peptide partially inhibited the germination is defined as “level 2,”; a case where all spores were ungerminated and the peptide completely inhibited the germination is defined as “level 3.”; conditions: 25° C. for 1 day or 2 days, microscopic observation
[2] = tested on: Colletotrichum destructivum; type: cell-based; parameters: key to Plate antimicrobial activity test Colletotrichum destructivum, level: a case where hyphae extended to the entire well and no antimicrobial activity was found is defined as “level 0,”; a case where hyphae extended to less than a half of the well and thus the peptide inhibited the growth of the hyphae is defined as “level 1,”; a case where ungerminated spores were present and the peptide partially inhibited the germination is defined as “level 2,”; a case where all spores were ungerminated and the peptide completely inhibited the germination is defined as “level 3.”; conditions: 25° C. for 1 day or 2 days, microscopic observation
Pyricularia oryzae = type: cell-based; parameters: key to Plate antimicrobial activity test Pyricularia oryzae, level: a case where hyphae extended to the entire well and no antimicrobial activity was found is defined as “level 0,”; a case where hyphae extended to less than a half of the well and thus the peptide inhibited the growth of the hyphae is defined as “level 1,”; a case where ungerminated spores were present and the peptide partially inhibited the germination is defined as “level 2,”; a case where all spores were ungerminated and the peptide completely inhibited the germination is defined as “level 3.”; conditions: 25° C. for 1 day or 2 days, microscopic observation
[3] = tested on: Colletotrichum destructivum; experiment: Colletotrichum destructivum leaf inoculation test (Chinese cabbage leaf); type: in vivo; conditions: peptide 100 μM; Chinese cabbage leaf, 25° C. for 4 days, lesions by visual inspection; symbols ◯/Δ/X not defined
Method: In the present example, a suspension comprising Colletotrichum destructivum and a peptide to be tested was dropped on a plant leaf, and lesions were then observed by visual inspection to evaluate the antimicrobial activity of the tested peptide. First, the pores of Colletotrichum destructivum were suspended in water to result in a spore concentration of 5×10^5 spores/ml, so as to prepare a water suspension of spores. Subsequently, a peptide to be tested (TsORF6-1) was added to the water suspension of spores, so that the final concentration of the peptide to be tested became 0 μM, 1 μM, 10 μM or 100 μM. Thereafter, 10 μl each of the water suspension of spores containing the peptide to be tested was dropped on the front side and the back side of the leaf of Chinese cabbage (variety name: “Kigokoro 85”). In this condition, incubation was carried out at 25° C. for 4 days. Thereafter, the front and back sides of the leaf were observed by visual inspection.

Fusarium oxysporum = type: cell-based; parameters: key to Plate antimicrobial activity test Fusarium oxysporum, level: a case where hyphae extended to the entire well and no antimicrobial activity was found is defined as “level 0,”; a case where hyphae extended to less than a half of the well and thus the peptide inhibited the growth of the hyphae is defined as “level 1,”; a case where ungerminated spores were present and the peptide partially inhibited the germination is defined as “level 2,”; a case where all spores were ungerminated and the peptide completely inhibited the germination is defined as “level 3.”
[4] = tested on: plant pathogenic filamentous fungi; type: cell-based; conditions: Table 3

Substance: KVMIVVKT (listed as Solanum lycopersicum) [TsORF6-1-8aa-2, partial peptide of TsORF6-1, 8 amino acid residues]
- Plate antimicrobial activity test Botrytis cinerea, level (Botrytis cinerea; peptide 1 μM): 0
- Plate antimicrobial activity test Botrytis cinerea, level (Botrytis cinerea; peptide 10 μM): 0
- Plate antimicrobial activity test Botrytis cinerea, level (Botrytis cinerea; peptide 100 μM): 3
- Plate antimicrobial activity test Colletotrichum orbiculare, level ([1]; peptide 1 μM): 0
- Plate antimicrobial activity test Colletotrichum orbiculare, level ([1]; peptide 10 μM): 0
- Plate antimicrobial activity test Colletotrichum orbiculare, level ([1]; peptide 100 μM): 2
- Plate antimicrobial activity test Colletotrichum destructivum, level ([2]; peptide 1 μM): 0
- Plate antimicrobial activity test Colletotrichum destructivum, level ([2]; peptide 10 μM): 0
- Plate antimicrobial activity test Colletotrichum destructivum, level ([2]; peptide 100 μM): 2
- Plate antimicrobial activity test Pyricularia oryzae, level (Pyricularia oryzae; peptide 1 μM): 0
- Plate antimicrobial activity test Pyricularia oryzae, level (Pyricularia oryzae; peptide 10 μM): 0
- Plate antimicrobial activity test Pyricularia oryzae, level (Pyricularia oryzae; peptide 100 μM): 2
- Leaf inoculation test Chinese cabbage/Colletotrichum destructivum [3]: ◯
- Plate antimicrobial activity test Fusarium oxysporum, level (Fusarium oxysporum): 3 and 0
- germination inhibitory activity against plant pathogenic filamentous fungi, result in words [4]: extremely excellent germination inhibitory activity

Substance: KVAKM (listed as Solanum lycopersicum) [TsORF6-1-5aa-15, partial peptide of TsORF6-1, 5 amino acid residues]
- Plate antimicrobial activity test Botrytis cinerea, level (Botrytis cinerea; peptide 1 μM): 0
- Plate antimicrobial activity test Botrytis cinerea, level (Botrytis cinerea; peptide 10 μM): 0
- Plate antimicrobial activity test Botrytis cinerea, level (Botrytis cinerea; peptide 100 μM): 0
- Plate antimicrobial activity test Colletotrichum orbiculare, level ([1]; peptide 1 μM): 0
- Plate antimicrobial activity test Colletotrichum orbiculare, level ([1]; peptide 10 μM): 0
- Plate antimicrobial activity test Colletotrichum orbiculare, level ([1]; peptide 100 μM): 0
- Plate antimicrobial activity test Colletotrichum destructivum, level ([2]; peptide 1 μM): 0
- Plate antimicrobial activity test Colletotrichum destructivum, level ([2]; peptide 10 μM): 0
- Plate antimicrobial activity test Colletotrichum destructivum, level ([2]; peptide 100 μM): 0
- Plate antimicrobial activity test Pyricularia oryzae, level (Pyricularia oryzae; peptide 1 μM): 0
- Plate antimicrobial activity test Pyricularia oryzae, level (Pyricularia oryzae; peptide 10 μM): 0
- Plate antimicrobial activity test Pyricularia oryzae, level (Pyricularia oryzae; peptide 100 μM): 0
- Leaf inoculation test Chinese cabbage/Colletotrichum destructivum [3]: Δ
- Plate antimicrobial activity test Fusarium oxysporum, level (Fusarium oxysporum): 0

Substance: KKVAK (listed as Solanum lycopersicum) [TsORF6-1-5aa-14, partial peptide of TsORF6-1, 5 amino acid residues]
- Plate antimicrobial activity test Botrytis cinerea, level (Botrytis cinerea; peptide 1 μM): 0
- Plate antimicrobial activity test Botrytis cinerea, level (Botrytis cinerea; peptide 10 μM): 0
- Plate antimicrobial activity test Botrytis cinerea, level (Botrytis cinerea; peptide 100 μM): 0
- Plate antimicrobial activity test Colletotrichum orbiculare, level ([1]; peptide 1 μM): 0
- Plate antimicrobial activity test Colletotrichum orbiculare, level ([1]; peptide 10 μM): 0
- Plate antimicrobial activity test Colletotrichum orbiculare, level ([1]; peptide 100 μM): 0
- Plate antimicrobial activity test Colletotrichum destructivum, level ([2]; peptide 1 μM): 0
- Plate antimicrobial activity test Colletotrichum destructivum, level ([2]; peptide 10 μM): 0
- Plate antimicrobial activity test Colletotrichum destructivum, level ([2]; peptide 100 μM): 0
- Plate antimicrobial activity test Pyricularia oryzae, level (Pyricularia oryzae; peptide 1 μM): 0
- Plate antimicrobial activity test Pyricularia oryzae, level (Pyricularia oryzae; peptide 10 μM): 0
- Plate antimicrobial activity test Pyricularia oryzae, level (Pyricularia oryzae; peptide 100 μM): 0
- Leaf inoculation test Chinese cabbage/Colletotrichum destructivum [3]: Δ
- Plate antimicrobial activity test Fusarium oxysporum, level (Fusarium oxysporum): 0

Substance: KVKNKKVA (listed as Solanum lycopersicum) [TsORF6-1-8aa-10, partial peptide of TsORF6-1, 8 amino acid residues]
- Plate antimicrobial activity test Botrytis cinerea, level (Botrytis cinerea; peptide 1 μM): 0
- Plate antimicrobial activity test Botrytis cinerea, level (Botrytis cinerea; peptide 10 μM): 0
- Plate antimicrobial activity test Botrytis cinerea, level (Botrytis cinerea; peptide 100 μM): 0
- Plate antimicrobial activity test Colletotrichum orbiculare, level ([1]; peptide 1 μM): 0
- Plate antimicrobial activity test Colletotrichum orbiculare, level ([1]; peptide 10 μM): 0
- Plate antimicrobial activity test Colletotrichum orbiculare, level ([1]; peptide 100 μM): 0
- Plate antimicrobial activity test Colletotrichum destructivum, level ([2]; peptide 1 μM): 0
- Plate antimicrobial activity test Colletotrichum destructivum, level ([2]; peptide 10 μM): 0
- Plate antimicrobial activity test Colletotrichum destructivum, level ([2]; peptide 100 μM): 0
- Plate antimicrobial activity test Pyricularia oryzae, level (Pyricularia oryzae; peptide 1 μM): 0
- Plate antimicrobial activity test Pyricularia oryzae, level (Pyricularia oryzae; peptide 10 μM): 0
- Plate antimicrobial activity test Pyricularia oryzae, level (Pyricularia oryzae; peptide 100 μM): 0
- Plate antimicrobial activity test Fusarium oxysporum, level (Fusarium oxysporum): 0

Substance: KVKNK (listed as Solanum lycopersicum) [TsORF6-1-5aa-10, partial peptide of TsORF6-1, 5 amino acid residues]
- Plate antimicrobial activity test Botrytis cinerea, level (Botrytis cinerea; peptide 1 μM): 0
- Plate antimicrobial activity test Botrytis cinerea, level (Botrytis cinerea; peptide 10 μM): 0
- Plate antimicrobial activity test Botrytis cinerea, level (Botrytis cinerea; peptide 100 μM): 0
- Plate antimicrobial activity test Colletotrichum orbiculare, level ([1]; peptide 1 μM): 0
- Plate antimicrobial activity test Colletotrichum orbiculare, level ([1]; peptide 10 μM): 0
- Plate antimicrobial activity test Colletotrichum orbiculare, level ([1]; peptide 100 μM): 0
- Plate antimicrobial activity test Colletotrichum destructivum, level ([2]; peptide 1 μM): 0
- Plate antimicrobial activity test Colletotrichum destructivum, level ([2]; peptide 10 μM): 0
- Plate antimicrobial activity test Colletotrichum destructivum, level ([2]; peptide 100 μM): 0
- Plate antimicrobial activity test Pyricularia oryzae, level (Pyricularia oryzae; peptide 1 μM): 0
- Plate antimicrobial activity test Pyricularia oryzae, level (Pyricularia oryzae; peptide 10 μM): 0
- Plate antimicrobial activity test Pyricularia oryzae, level (Pyricularia oryzae; peptide 100 μM): 0
- Leaf inoculation test Chinese cabbage/Colletotrichum destructivum [3]: Δ
- Plate antimicrobial activity test Fusarium oxysporum, level (Fusarium oxysporum): 0 and 1

Substance: TKVKN (listed as Solanum lycopersicum) [TsORF6-1-5aa-9, partial peptide of TsORF6-1, 5 amino acid residues]
- Plate antimicrobial activity test Botrytis cinerea, level (Botrytis cinerea; peptide 1 μM): 0
- Plate antimicrobial activity test Botrytis cinerea, level (Botrytis cinerea; peptide 10 μM): 0
- Plate antimicrobial activity test Botrytis cinerea, level (Botrytis cinerea; peptide 100 μM): 0
- Plate antimicrobial activity test Colletotrichum orbiculare, level ([1]; peptide 1 μM): 0
- Plate antimicrobial activity test Colletotrichum orbiculare, level ([1]; peptide 10 μM): 0
- Plate antimicrobial activity test Colletotrichum orbiculare, level ([1]; peptide 100 μM): 0
- Plate antimicrobial activity test Colletotrichum destructivum, level ([2]; peptide 1 μM): 0
- Plate antimicrobial activity test Colletotrichum destructivum, level ([2]; peptide 10 μM): 0
- Plate antimicrobial activity test Colletotrichum destructivum, level ([2]; peptide 100 μM): 0
- Plate antimicrobial activity test Pyricularia oryzae, level (Pyricularia oryzae; peptide 1 μM): 0
- Plate antimicrobial activity test Pyricularia oryzae, level (Pyricularia oryzae; peptide 10 μM): 0
- Plate antimicrobial activity test Pyricularia oryzae, level (Pyricularia oryzae; peptide 100 μM): 0
- Plate antimicrobial activity test Fusarium oxysporum, level (Fusarium oxysporum): 0

Substance: TKVKNKKV (listed as Solanum lycopersicum) [TsORF6-1-8aa-9, partial peptide of TsORF6-1, 8 amino acid residues]
- Plate antimicrobial activity test Botrytis cinerea, level (Botrytis cinerea; peptide 1 μM): 0
- Plate antimicrobial activity test Botrytis cinerea, level (Botrytis cinerea; peptide 10 μM): 0
- Plate antimicrobial activity test Botrytis cinerea, level (Botrytis cinerea; peptide 100 μM): 0
- Plate antimicrobial activity test Colletotrichum orbiculare, level ([1]; peptide 1 μM): 0
- Plate antimicrobial activity test Colletotrichum orbiculare, level ([1]; peptide 10 μM): 0
- Plate antimicrobial activity test Colletotrichum orbiculare, level ([1]; peptide 100 μM): 0
- Plate antimicrobial activity test Colletotrichum destructivum, level ([2]; peptide 1 μM): 0
- Plate antimicrobial activity test Colletotrichum destructivum, level ([2]; peptide 10 μM): 0
- Plate antimicrobial activity test Colletotrichum destructivum, level ([2]; peptide 100 μM): 0
- Plate antimicrobial activity test Pyricularia oryzae, level (Pyricularia oryzae; peptide 1 μM): 0
- Plate antimicrobial activity test Pyricularia oryzae, level (Pyricularia oryzae; peptide 10 μM): 0
- Plate antimicrobial activity test Pyricularia oryzae, level (Pyricularia oryzae; peptide 100 μM): 0
- Plate antimicrobial activity test Fusarium oxysporum, level (Fusarium oxysporum): 0
